One test concerns p21. Put plainly: p21 fluorescent immunocytochemistry followed by high content cytometry in drug-treated SHSY-5Y cells. The class given is cell-based, Human. To be noted: neuroblastoma cells. As for the experimental part:
(§1) Human SHSY-5Y neuroblastoma cells were grown in DMEM:F12 supplemented with 10% FCS, penicillin (100 units/mil), streptomycin (100 μg/ml) and L-glutamine. The cells were plated for 24 hours into 96 well plates (5000 cells per well) before treatment with drugs. Each drug (doses applied in separate figures) and the control (DMSO) were applied to 8 technical replicate wells. After 24 hours treatment the cells were harvested by fixation in Glyofix and were post-fixed with ice cold 85% ethanol.
(§2) For P21^cip staining, the alcohol was aspirated and replaced with 100 μl/well blocking solution (5% BSA in PBST [1:1000 Triton X]) and incubated for 30 minutes at room temperature. After aspirating the blocking solution, 50 μl/well primary antibody solution (monoclonal P21 Abcam, 1:1000 in PBST) was added and incubated over night at 4° C. and PBST was applied as negative control. The next day, the cells were washed by twice aspirating 200 μl/well PBST. Afterwards, 50 μl/well secondary antibody solution (Anti-mouse IgG-FITC, Abcam, 1:200 in PBST) was added, protecting the solutions and plates from light, and incubated overnight at +4° C. The next day, the cells were washed twice with 200 μl/well PBST and stained with propidium iodide solution. […]. The composition of the propidium iodide staining solution was 0.1% Triton-X-100, […] propidium iodide, […] RNase A in PBS. The cells were incubated with the staining solution for 25 minutes at 37° C., and then DNA content based on total fluorescence was measured with a High Content Cytometer (Acumen). This allows rapid analysis of whole 96 well plates with resolution equivalent to a 20× microscope objective. The measurement of p21 content of cells and nuclei was based on the direct measurement of fluorescent intensity.

Test [1] relates to Human SHSY-5Y neuroblastoma cells. Put plainly: High content cytometry apoptosis assay in drug-treated SHSY-5Y cells. The class given is cell-based. Conditions: 24 hours; for cell death: up to 200 microM. The protocol: as §1, §2
The subject of test [2] is C7, KD2 and KD3 cell lines (SK-N-AS derived). Kind of test: Cell cycle analysis (propidium iodide DNA content cytometry) in drug-treated C7, KD2 and KD3 cells. To be noted: 24 hours, up to 100 μM. The class given is cell-based, human. The protocol: The C7 cell suspension were poured into sterile reagent reservoir labelled C7 and using multichannel pipette, 50 μl of cell suspension were dispense into each well. Then 50 μl of 2× culture media was added into each well. Plating was repeated for KD2 and KD3 cell lines. One plate of ‘zero day control’ was also prepared per experiment. On ‘zero day control’ plate, C7 cell line were plated into columns 1, 2, 7 and 8; KD2 cell line were plated into columns 3, 4, 9 and 10; KD3 cell line were plated into columns 5, 6, 11 and 12. Cells were plated at the same density for both ‘zero day control’ and experiment plates. The ‘zero day control’ plate remains untreated and is to be harvested just before the drugs were added into the treatment plates.
For each drug, 2× working solutions are prepared in culture medium and added to the cultures. The highest drug concentration is 100 μM and final solvent (H2O/DMSO) concentration in the cultures is 1%.
Using an 8-multichannel pipetor, 100 μl of 2× final drug concentrations were gently dispensed into the culture plates of C7, KD2 and KD3 cells. The time of the treatment was noted and cells were transferred back into 37° C./5% CO2 humidified incubator and were incubated for 24 hours.
The propidium iodide staining was used to determine the cell cycle phase of the cells based on DNA content.
To determine cut-offs for cells in different phases of the cell cycle, gate setting was performed based on the G1 and G2 peaks on the DNA content histogram. To determine the G1 and G2 peaks, the 3° total intensity in 20% histograms was analysed for each plate. Gates calculated were manually entered into the Acumen software.
(§3) The data exported and quantified included separately all cells and single cells. Single cells were further subcategorised into euploid, apoptotic and polyploid cells. Euploid cells were additionally classified into cells in G1 S and G2M phases of the cell cycle.

In the next test the test system is p21cip1. Kind of test: p21cip1 immunostaining and cytometry in drug-treated C7, KD2 and KD3 cells. The class given is cell-based, human. The protocol:
BSA was removed from the plates after 30 minutes incubation. To C7, KD2 and KD3 plates, 50 μl of primary antibody (p21; Abcam ab7903; 1/1000 in PBST) solution was added to each well. On ‘zero day control’ plate, 50 μl of the primary antibody was added to columns 1-6 while columns 7-12 received only 50 μl PBST on each well. These (columns 7-12) serve as a negative controls and will received secondary antibody only. Plates were then wrapped in cling film and were incubated at +4° C. overnight. The following day, p21 primary antibody solution was removed from the plates and cells were washed by adding 200 μl of PBST. This was repeated once (total of 2 washes) and all plates were then subjected to secondary antibody treatment. Secondary antibody solution was made using am IgG-FITC (Abcam ab6785; 1/200 in PBST) and 50 μl was added to each well. Plates were then wrapped in aluminium foil to protect from light and were incubated at +4° C. for 2 hours. The immunostaining was used to measure the content of p21^cip1 in the cells. Measurement was carried out using a laser triggering the 1° channel (bandpass filter 500-530 nm). The total fluorescence intensity from the 1° channel was used to compare total protein levels in the different cell populations defined above. Mean fluorescence intensity per cell (for the whole of the population) and mean fluorescence intensity per cell (for positive cells only) were analysed separately. Additionally the proportion of positive cells in each population was calculated.

Test [3] relates to C7, KD2 and KD3 cell lines (SK-N-AS derived). Kind of test: Apoptotic fraction in p21 positive versus p21 negative cells of drug-treated C7, KD2 and KD3 cultures. Type of test: cell-based, human. The protocol: as §3
The total fluorescence intensity from the 1° channel was used to compare total protein levels in the different cell populations defined above. Mean fluorescence intensity per cell (for the whole of the population) and mean fluorescence intensity per cell (for positive cells only) were analysed separately. Additionally the proportion of positive cells in each population was calculated.

Where [4] appears, read: all three cell lines (C7, KD2, KD3).
Setting [5] is: G1 and G2 subpopulations, all three cell lines.
The mark [6] stands for this setting: all cell lines (C7, KD2, KD3), 24 hours.

Entries after “also recorded” stand apart in the source; their conditions may differ. Counter-ions that a name gives are not always drawn. Like-named read-outs stand apart in the source and are kept apart here.

Turning to `CC(C(=O)O)c1ccc(-c2ccccc2)c(F)c1` (racemic) [Flurbiprofen], in the test on p21 (0.01 and 0.1 microM, 24 hours), the p21 expression entry is recorded as “significantly increase” and the “p21 expression in the nuclear compartment” value was “significantly increase”. Further, the “expression and/or the functional activity of p21” value in the test on p21 is recorded as “increased”. The apoptotic cell death entry in test [1] (0.01 and 0.1 microM) is “reduce apoptosis; also recorded: significantly reduce; also recorded: reduce apoptotic cell death”.
For the compound `O=C([O-])CCCc1ccccc1.[Na+]` [4-PBA, Sodium 4-phenylbutyrate], in test [2] (setting [4]), the cell cycle effects entry is “no effects”. Moreover, the p21 expression entry in the test with p21cip1 (G2 cell population, all three cell lines) is recorded as “induces; also recorded: relatively small”; with p21cip1 (G2 cell population, all three cell lines, listed as Sodium 4-phenylbutyrate), “induces”. Moreover, the “apoptosis in p21 positive cells relative to p21 negative cells” value in test [3] was “significantly reduced apoptosis”.
With `Cc1cc(C2CCCCC2)n(O)c(=O)c1` [CPX, Ciclopirox Olamine], the cell cycle effects entry in test [2] (setting [4]) is listed as “slight G1 cell cycle arrest”. In addition, the p21 expression result in the test on p21cip1 (setting [5]) is on record as “induces significant p21 expression”; in the test with p21cip1 (setting [6]), “up-regulates”. For the same compound, the “apoptosis in p21 positive cells relative to p21 negative cells” value in test [3] is “significant reduction of apoptotic cells; also recorded: reduced cell death”.
Take `CCN(CC)CCCC(C)Nc1ccnc2cc(Cl)ccc12` (stereo not shown) [Chloroquine diphosphate]: the cell cycle effects result in test [2] (setting [4]) is “no significant effect”; in test [2] (all three cell lines (C7, KD2, KD3), listed as chloroquine diphosphate), “no significant cell cycle regulatory effects”. For the same compound, the “proportion of protein positive cells” value in the test on p21cip1 (C7 cells) is “increased proportion”; in the test with p21cip1 (KD2 and KD3 cells), “increased”. For the same compound, the p21 expression result in the test on p21cip1 (C7 cells, G1 and G2M) is given as “significantly increased”; in the test on p21cip1 (KD2 cells, G2M phase), “up-regulated”; in the test on p21cip1 (KD3 cell line, G1), “upregulation”; in the test on p21cip1 (setting [6]), “up-regulates”. Besides, the “population of positive cells” value in the test with p21cip1 (all cell lines) was “increases”. Besides, the “apoptosis in p21 positive cells relative to p21 negative cells” value in test [3] is reported as “significantly less likely to be apoptotic; also recorded: significantly reduced cell death”.
For the compound `Nc1ccc(S(=O)(=O)c2ccc(N)cc2)cc1` [Dapsone, 4-Aminophenyl sulfone], in test [2] (setting [4]), the cell cycle effects entry is “No cell cycle effects”. Moreover, the p21 expression entry in the test with p21cip1 (setting [6]) is given as “significantly up-regulates”. Further, the “apoptosis in p21 positive cells relative to p21 negative cells” value in test [3] is on record as “significant reduction of apoptotic cells”.
`C[C@@H](CN1CC(=O)NC(=O)C1)N1CC(=O)NC(=O)C1` [Dexrazoxane]: the “expression and/or the functional activity of p21” value with p21 was “increased”. The p21 expression result in the test on p21 (up to 200 microM, 24 hours) is given as “significantly increase”. Besides, the cell death entry in test [1] is “reduce neuronal cells death; also recorded: significantly reduced cell death”; in test [1] (listed as Dexrasoxane), “reduce apoptosis; also recorded: significantly reduced cell death”.
For `CC(=O)O[C@H]1C[C@@]2(C)[C@@H](C[C@@H](O)[C@H]3[C@@]4(C)CC[C@@H](O)[C@@H](C)[C@@H]4CC[C@@]32C)/C1=C(\CCC=C(C)C)C(=O)O` [Fusidic acid], the cell cycle effects result in test [2] (setting [4]) is given as “weak G2 inhibitor”. Besides, in the test with p21cip1 (setting [6]), the p21 expression result was “significant increase; also recorded: induces significant p21 expression”. Also, the “apoptosis in p21 positive cells relative to p21 negative cells” value in test [3] was “reduction of apoptosis”.
`CN(C)C(=O)C(CCN1CCC(O)(c2ccc(Cl)cc2)CC1)(c1ccccc1)c1ccccc1` [Loperamide, Loperamide hydrochloride]: in test [2] (all three cell lines (C7, KD2, KD3), hydrochloride), the cell cycle effects entry is “weak G1 inhibitor; also recorded: weak G1 cell cycle arrest”. The p21 expression result in the test with p21cip1 (setting [5]) was “induce”; with p21cip1 (setting [6]), “up-regulates”. For the same compound, the “apoptosis in p21 positive cells relative to p21 negative cells” value in test [3] (hydrochloride) was “significant reduction of apoptosis; also recorded: reduces apoptosis significantly”; in test [3] (listed as Loperamide hydrochloride, hydrochloride), “significant reduction of apoptosis”.
Consider `CCCC(CCC)C(=O)[O-].[Na+]` [SV, Sodium Valproate], for which the cell cycle effects entry is “slight G2 arrest; also recorded: not seen” in test [2] (C7 cell line), “G1 inhibition; also recorded: slight G1 inhibitor effect” in test [2] (KD2 cell line) and “G1 inhibition; also recorded: slight G1 inhibitor effect” in test [2] (KD3 cell line). In the test with p21cip1 (G2 sub-population of cells, 1 μM, 24 hours), the p21 protein expression entry is on record as “significant upregulation”. Also, the p21 expression result with p21cip1 (setting [6]) was “modest”. Moreover, in test [3], the “apoptosis in p21 positive cells relative to p21 negative cells” value is on record as “significant reduction of apoptotic fraction”.

The record behind these values is patent publication US11154550B2, “Treatment for neurodegeneration” (The University of Birmingham, priority 2012, dated 2021).
